{
  "source": "patent EP3865489A1",
  "about": "“SPIROCYCLIC INHIBITORS OF HEPATITIS B VIRUS” (priority 2020, dated 2021)",
  "data": [
    {"test_system": "HBV", "experiment": "Anti-HBV activity in vitro: extracellular HBV DNA quantified by direct qPCR in HepAD38 cells", "assay_type": "cell-based", "conditions": "Hepatitis B virus, doxycycline-free medium, 96 hours at 37°C, reported as EC50 threshold value, read-out: HBV inh EC50", "from_the_text": "HepAD38 cell line (Ladner et al., Antimicrob Agents Chemother, 1997, 41, 1715-20) was used for HBV inhibition assays. HepAD38 is a subclone, derived from Hepatoblastoma cell line HepG2 (ATCC® Number: HB-8065™), that expresses HBV genome under the transcriptional control of a tetracycline-responsive promoter in a TET-OFF system: addition of tetracycline (TET) or doxycycline suppresses HBV replication, while its removal switches on the process allowing HBV viral particles release in the cell supernatant. HepAD38 cell line is maintained in DMEM/F12, supplemented with 10% of fetal bovine serum, 1% of glutamine, 1% of penicillin/streptomycin, 0.4 mg/ml G418 and 0,3 ug/ml tetracycline. For the HBV inhibition assay, doxycycline-free medium is used in order to allow virion production.\nHBV inhibition activity in vitro was performed in 96 multiwell plates. During the initial (primary) screening, compounds were first tested in triplicates at concentrations of 0.02 µM, 0.1µM, 0.5µM and 1µM. For selected compounds, an 8-point dose-response curve was obtained using 1:2 serial dilutions (starting from 0.01µM, 0.1µM, 0.4µM or 5 µM, depending on the degree of inhibition observed during the primary screening). From the dose-response curves, half maximal effective concentration (EC50) could be calculated (see also below).\nIn more detail, compounds - typically dissolved in DMSO stock solutions - were diluted to 2x the final desired concentration in 100 µl of the above medium (without doxycycline) and plated in three replicates in the 96-well plates. […]\nPlates were then incubated 96 hours at 37°C and then subjected to cell viability assays and extracellular HBV quantification, in order to evaluate both the cytotoxic potential and the antiviral activity of compounds. Cytotoxicity was assessed by a commercial fluorescence assay that measures the metabolic activity of cells, directly related to cell viability (Cell Titer Blue, Promega). Anti-HBV activity was evaluated by quantification of extracellular HBV DNA with direct qPCR. […]", "units": {"EC50": "nM"}, "values": [
      {"smiles": "Cc1nnc(C(=O)N2CCC3(COc4c(cn(C)c4C(=O)Nc4ccc(F)c(F)c4)S(=O)(=O)N3)C2)o1", "note": "(stereo not drawn) [Example E2, N-(3,4-difluorophenyl)-7'-methyl-1-(5-methyl-1,3,4-oxadiazole-2-carbonyl)-2'H,4'H,7'H-spiro[pyrrolidine-3,3'-pyrrolo[3,4-b][1,4,5]oxathiazepine]-6'-carboxamide 1',1'-dioxide]", "EC50": "< 500"},
      {"smiles": "C[C@H](NC(=O)C(=O)N1CCC2(COc3c(c(Cl)n(C)c3C(=O)Nc3ccc(F)c(F)c3)S(=O)(=O)N2)C1)C(F)(F)F", "note": "(stereo in doubt) [Example E3, 8'-chloro-N-(3,4-difluorophenyl)-7'-methyl-1-(2-oxo-2-(((S)-1,1,1-trifluoropropan-2-yl)amino)acetyl)-2'H,4'H,7'H-spiro[pyrrolidine-3,3'-pyrrolo[3,4-b][1,4,5]oxathiazepine]-6'-carboxamide 1',1'-dioxide]", "EC50": "< 500"},
      {"smiles": "C[C@H](NC(=O)C(=O)N1CCC2(COc3c(cn(C)c3C(=O)Nc3ccc(F)c(F)c3)S(=O)(=O)N2)C1)C(F)(F)F", "note": "(stereo in doubt) [Example E1, N-(3,4-difluorophenyl)-7'-methyl-1-(2-oxo-2-(((S)-1,1,1-trifluoropropan-2-yl)amino)acetyl)-2'H,4'H,7'H-spiro[pyrrolidine-3,3'-pyrrolo[3,4-b][1,4,5]oxathiazepine]-6'-carboxamide 1',1'-dioxide]", "EC50": "< 500"}
    ]}
  ]
}
